# Data taken from ChEMBL document CHEMBL4725294, “Centrally Active Multitarget Anti-Alzheimer Agents Derived from the Antioxidant Lead CR-6” (J Med Chem, 2020).
# The source made the active and inactive calls. The rule behind the calls is not given here.
# How the values were obtained:
# [1] = target: Beta-secretase 1 (Homo sapiens, UniProt P56817); experiment: Inhibition human BACE1 expressed in baculovirus expression system at 5 uM using Panvera peptide as substrate measured after 60 mins by fluorescence assay relative to control; details: 1 h
# Beta-secretase 1, sequence (P56817 whole entry): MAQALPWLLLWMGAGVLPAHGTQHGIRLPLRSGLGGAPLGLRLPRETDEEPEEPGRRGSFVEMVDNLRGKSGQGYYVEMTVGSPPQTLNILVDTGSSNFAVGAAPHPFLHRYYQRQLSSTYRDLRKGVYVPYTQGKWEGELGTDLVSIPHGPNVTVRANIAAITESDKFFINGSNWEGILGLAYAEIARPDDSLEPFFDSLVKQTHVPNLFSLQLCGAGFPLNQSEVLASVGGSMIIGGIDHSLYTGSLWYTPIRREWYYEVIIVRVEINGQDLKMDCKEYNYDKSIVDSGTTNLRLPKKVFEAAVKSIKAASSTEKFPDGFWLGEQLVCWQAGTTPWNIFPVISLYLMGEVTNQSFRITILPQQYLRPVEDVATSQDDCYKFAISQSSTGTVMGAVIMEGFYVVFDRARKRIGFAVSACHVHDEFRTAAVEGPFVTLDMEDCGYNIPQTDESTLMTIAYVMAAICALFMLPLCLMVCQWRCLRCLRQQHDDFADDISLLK
# [2] = Acute toxicity in C57BL6/J mouse at 5 to 10 mg/kg, ip measured up to 24 hrs; type: organism-based; details: in vivo, dose 5-10 mg/kg
# [3] = tested on: Mus musculus; experiment: Antialzheimer activity in APP/PS1 double mutant-transgenic C57BL6/J mouse model assessed as reduction in amyloid beta burden in cortex at 10 mg/kg/day, ip for 4 weeks followed by compound washout and measured after 24 hrs by hematoxylin staining based microscopic analysis; type: functional, organism-based
# [4] = tested on: Mus musculus; experiment: Antialzheimer activity in APP/PS1 double mutant-transgenic C57BL6/J mouse model assessed as increase in Adam10 expression at 10 mg/kg/day, ip for 4 weeks followed by compound washout and measured after 24 hrs by Western blot analysis; type: functional, organism-based
# [5] = tested on: Mus musculus; experiment: Antialzheimer activity in APP/PS1 double mutant-transgenic C57BL6/J mouse model assessed as reduction in Bace1 expression at 10 mg/kg/day, ip for 4 weeks followed by compound washout and measured after 24 hrs by Western blot analysis; type: functional, organism-based
# [6] = tested on: Mus musculus; experiment: Antialzheimer activity in APP/PS1 double mutant-transgenic C57BL6/J mouse model assessed as reduction in oxidized protein level at 10 mg/kg/day, ip for 4 weeks followed by compound washout and measured after 24 hrs by Western blot analysis; type: functional, organism-based
# [7] = Stability in human plasma assessed as parent compound remaining at 10 uM measured immediately by UPLC-MS/MS analysis; type: ADME, cell-free; details: read-out: Stabilty
# [8] = Stability in human plasma assessed as parent compound remaining at 10 uM measured after 60 mins by UPLC-MS/MS analysis; type: ADME, cell-free; details: read-out: Stabilty
# [9] = Stability in human plasma assessed as parent compound remaining at 10 uM measured after 180 mins by UPLC-MS/MS analysis; type: ADME, cell-free; details: read-out: Stabilty
# [10] = Stability in mouse plasma assessed as parent compound remaining at 10 uM measured after 360 mins by UPLC-MS/MS analysis; type: ADME, cell-free; details: read-out: Stabilty
# [11] = Stability in rat plasma assessed as parent compound remaining at 10 uM measured after 60 mins by UPLC-MS/MS analysis; type: ADME, cell-free; details: read-out: Stabilty
# [12] = Stability in human liver microsomes assessed as parent compound remaining at 5 uM measured up to 60 mins by UPLC-MS/MS analysis; type: ADME, Microsome; details: read-out: Stabilty
# [13] = Half life in human liver microsomes at 5 uM by UPLC-MS/MS analysis; type: ADME, Microsome
# [14] = Stability in mouse liver microsomes assessed as parent compound remaining at 5 uM measured up to 60 mins by UPLC-MS/MS analysis; type: ADME, Microsome; details: read-out: Stabilty
# [15] = Stability in rat liver microsomes assessed as parent compound remaining at 5 uM measured up to 60 mins by UPLC-MS/MS analysis; type: ADME, Microsome; details: read-out: Stabilty
# [16] = Drug metabolism in human liver microsomes assessed as N-[8-[(6-chloro-1,2,3,4-tetrahydroacridin-9-yl)amino]octyl]-3-hydroxy-5-(4-methoxy-3,6-dioxo-cyclohexa-1,4-dien-1-yl)-3-methyl-pentanamide formation at 5 uM measured up to 60 mins by UPLC-MS/MS analysis; type: ADME, Microsome; details: 1 h
# [17] = Drug metabolism in human liver microsomes assessed as N-[8-[(6-chloro-1,2,3,4-tetrahydroacridin-9-yl)amino]octyl]-5-(2,5-dihydroxy-4-methoxy-phenyl)-3-hydroxy-3-methyl-pentanamide formation at 5 uM measured up to 60 mins by UPLC-MS/MS analysis; type: ADME, Microsome; details: 1 h
# [18] = Drug metabolism in rat liver microsomes assessed as N-[8-[(6-chloro-1,2,3,4-tetrahydroacridin-9-yl)amino]octyl]-2-(8-methoxy-2-methyl-6,9-dioxo-1-oxaspiro[4.5]dec-7-en-2-yl)acetamide formation at 5 uM measured up to 60 mins by UPLC-MS/MS analysis; type: ADME, Microsome; details: 1 h
smiles,measurement,setting,value
COc1cc2c(cc1O)CCC(C)(CC(=O)NCCCCCCCCNc1c3c(nc4cc(Cl)ccc14)CCCC3)O2 (stereo not drawn),inhibition at 5 µM,[1],19%
same,Activity,[2],Non-Toxic
same,Activity,[3],inactive
same,Activity,[4],inactive
same,Activity,[5],inactive
same,Activity,[6],inactive
same,"remaining at 0 min, 10 µM",[7],100%
same,"remaining at 1 h, 10 µM",[8],100%
same,"remaining at 3 h, 10 µM",[9],100%
same,"remaining at 6 h, 10 µM",[10],100%
same,"remaining at 1 h, 10 µM",[11],100%
same,"remaining at 1 h, 5 µM",[12],3.6%
same,half-life at 5 µM,[13],12.6 min
same,"remaining at 1 h, 5 µM",[14],55.2%
same,"remaining at 1 h, 5 µM",[15],36.5%
same,Drug metabolism,[16],Metabolite_Detected
same,Drug metabolism,[17],Metabolite_Detected
same,Drug metabolism,[18],Metabolite_Detected
